Measured values as given in ChEMBL document CHEMBL4411283, “The p53 stabilizing agent CP-31398 and multi-kinase inhibitors. Designing, synthesizing and screening of styrylquinazoline series” (Eur J Med Chem, 2019).

Tests used:
[1] = molecular target: T1, Tyrosine-protein kinase Fyn (Homo sapiens, UniProt P06241); assay: Inhibition of Fyn A (unknown origin) at 0.5 uM preincubated for 10 mins followed by substrate addition and measured after 1 hr by ADP-Glo luminescence assay relative to control
Target sequence in this assay (P06241 2-537 limits assumed): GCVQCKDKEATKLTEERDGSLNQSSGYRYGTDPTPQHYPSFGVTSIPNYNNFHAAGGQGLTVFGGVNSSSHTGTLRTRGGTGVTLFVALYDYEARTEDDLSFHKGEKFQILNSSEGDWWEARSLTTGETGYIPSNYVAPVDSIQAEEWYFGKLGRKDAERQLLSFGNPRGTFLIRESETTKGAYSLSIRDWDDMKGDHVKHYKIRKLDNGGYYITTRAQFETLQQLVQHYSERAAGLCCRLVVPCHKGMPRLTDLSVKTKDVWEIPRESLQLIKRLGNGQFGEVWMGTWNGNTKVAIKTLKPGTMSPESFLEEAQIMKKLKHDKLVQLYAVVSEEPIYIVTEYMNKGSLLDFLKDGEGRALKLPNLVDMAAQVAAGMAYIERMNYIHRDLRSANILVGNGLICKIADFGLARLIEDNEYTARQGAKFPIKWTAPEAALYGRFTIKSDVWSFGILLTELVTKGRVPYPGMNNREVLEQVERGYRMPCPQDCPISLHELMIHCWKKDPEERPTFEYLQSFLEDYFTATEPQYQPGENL

HCT-116 [2] = assay: cells; conditions: Homo sapiens, HCT-116, 72 h
Description: Antiproliferative activity against p53-/- human HCT116 cells after 72 hrs by CellTiter 96 aqueous one solution assay

HCT-116 [3] = assay: cells; conditions: Homo sapiens, HCT-116, 72 h; remark: listed apart in the source
Description: Antiproliferative activity against p53+/+ human HCT116 cells after 72 hrs by CellTiter 96 aqueous one solution assay

NHDF = assay: cells; conditions: Homo sapiens, 72 h
Description: Antiproliferative activity against human NHDF cells after 72 hrs by CellTiter 96 aqueous one solution assay

MCF7 = assay: cells; conditions: Homo sapiens, MCF7, 72 h
Description: Antiproliferative activity against human MCF7 cells after 72 hrs by CellTiter 96 aqueous one solution assay

A549 = assay: cells; conditions: Homo sapiens, A549, 72 h
Description: Antiproliferative activity against human A549 cells after 72 hrs by CellTiter 96 aqueous one solution assay

[4] = molecular target: T2, Receptor tyrosine-protein kinase erbB-4 (Homo sapiens, UniProt Q15303); assay: Inhibition of human wild type ERBB4 (L690 to K994 residues) expressed in bacterial expression system at 5 uM relative to control
[5] = molecular target: T3, Tyrosine-protein kinase BTK (Homo sapiens, UniProt Q06187); assay: Inhibition of BTK (unknown origin) preincubated for 10 mins followed by substrate addition and measured after 1 hr by ADP-Glo luminescence assay
[6] = molecular target: T1, Tyrosine-protein kinase Fyn; assay: Inhibition of Fyn A (unknown origin) preincubated for 10 mins followed by substrate addition and measured after 1 hr by ADP-Glo luminescence assay
Nociceptin receptor = Nociceptin receptor (Homo sapiens, UniProt P41146); assay: Displacement of [3H]-nociceptin from human nociceptin receptor expressed in cell membranes after 60 mins by liquid scintillation counting analysis
[7] = molecular target: T4, Tyrosine-protein kinase Lyn (Homo sapiens, UniProt P07948); assay: Inhibition of human LYN-B using poly[Glu:Tyr] (4:1) as substrate by [gamma-33P]-ATP assay
[8] = molecular target: Tyrosine-protein kinase Lck (Homo sapiens) (UniProt P06239); assay: Inhibition of human LCK at 20 uM using poly[Glu:Tyr] (4:1) as substrate by [gamma-33P]-ATP assay relative to control
[9] = molecular target: Tyrosine-protein kinase CSK (Homo sapiens, UniProt P41240); assay: Inhibition of human CSK using poly[Glu:Tyr] (4:1) as substrate by [gamma-33P]-ATP assay
[10] = molecular target: T2, Receptor tyrosine-protein kinase erbB-4; assay: Inhibition of human ERBB4 using poly[Glu:Tyr] (4:1) as substrate by [gamma-33P]-ATP assay
[11] = molecular target: T4, Tyrosine-protein kinase Lyn; assay: Inhibition of human LYN at 20 uM using poly[Glu:Tyr] (4:1) as substrate by [gamma-33P]-ATP assay relative to control
Target sequence in this assay (P07948 2-512 limits assumed): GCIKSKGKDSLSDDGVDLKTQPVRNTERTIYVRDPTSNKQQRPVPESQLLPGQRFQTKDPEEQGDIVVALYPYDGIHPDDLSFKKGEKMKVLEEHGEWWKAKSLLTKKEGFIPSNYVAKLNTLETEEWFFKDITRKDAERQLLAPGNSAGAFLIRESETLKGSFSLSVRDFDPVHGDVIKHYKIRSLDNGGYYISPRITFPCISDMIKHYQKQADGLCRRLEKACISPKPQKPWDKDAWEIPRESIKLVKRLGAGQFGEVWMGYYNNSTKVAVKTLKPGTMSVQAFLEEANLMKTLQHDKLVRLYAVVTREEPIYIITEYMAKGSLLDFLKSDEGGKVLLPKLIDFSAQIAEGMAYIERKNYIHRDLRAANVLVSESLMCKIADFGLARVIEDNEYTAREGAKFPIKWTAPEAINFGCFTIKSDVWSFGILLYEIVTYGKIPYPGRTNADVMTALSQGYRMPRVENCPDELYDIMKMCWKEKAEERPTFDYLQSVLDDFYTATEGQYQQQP

[12] = molecular target: Tyrosine-protein kinase ABL1 (Homo sapiens) (UniProt P00519); assay: Inhibition of human ABL1 at 20 uM using EAIYAAPFAKKK as substrate by [gamma-33P]-ATP assay relative to control
[13] = molecular target: T3, Tyrosine-protein kinase BTK; assay: Inhibition of human BTK using KVEKIGEGTYGVVYK as substrate by [gamma-33P]-ATP assay
[14] = molecular target: T1, Tyrosine-protein kinase Fyn; assay: Inhibition of human FYN at 20 uM using poly[Glu:Tyr] (4:1) as substrate by [gamma-33P]-ATP assay relative to control
Target sequence in this assay (P06241 2-537 limits assumed): as the sequence (P06241 2-537 limits assumed) above

[15] = molecular target: Calcium/calmodulin-dependent protein kinase type 1G (Homo sapiens, UniProt Q96NX5); assay: Inhibition of human CAMK1G using KKALRRQETVDAL as substrate by [gamma-33P]-ATP assay
[16] = molecular target: Tyrosine-protein kinase ABL1 (Homo sapiens) (UniProt P00519); conditions: at 0.5 µM
Description: Inhibition of ABL1 (unknown origin) at 0.5 uM preincubated for 10 mins followed by substrate addition and measured after 1 hr by ADP-Glo luminescence assay relative to control

T3 sequence (Q06187 whole entry): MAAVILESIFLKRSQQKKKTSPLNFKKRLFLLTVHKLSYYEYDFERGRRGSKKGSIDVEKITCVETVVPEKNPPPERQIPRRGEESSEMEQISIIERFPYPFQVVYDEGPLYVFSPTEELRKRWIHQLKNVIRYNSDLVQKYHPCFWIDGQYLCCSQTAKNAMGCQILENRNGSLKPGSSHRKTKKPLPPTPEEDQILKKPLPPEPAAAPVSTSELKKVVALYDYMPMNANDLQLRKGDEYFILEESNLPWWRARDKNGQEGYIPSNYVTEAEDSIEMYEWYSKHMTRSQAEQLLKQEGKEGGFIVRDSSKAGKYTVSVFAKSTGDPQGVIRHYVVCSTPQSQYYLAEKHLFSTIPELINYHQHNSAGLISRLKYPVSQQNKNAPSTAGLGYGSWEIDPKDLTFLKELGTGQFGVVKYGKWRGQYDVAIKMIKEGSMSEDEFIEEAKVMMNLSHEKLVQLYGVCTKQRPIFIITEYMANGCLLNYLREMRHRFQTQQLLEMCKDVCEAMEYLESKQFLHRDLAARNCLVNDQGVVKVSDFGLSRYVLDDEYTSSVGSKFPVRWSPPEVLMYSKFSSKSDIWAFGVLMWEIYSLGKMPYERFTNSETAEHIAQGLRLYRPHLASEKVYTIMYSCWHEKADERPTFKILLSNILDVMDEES
Chain of Tyrosine-protein kinase ABL1 (Homo sapiens) (P00519 whole entry): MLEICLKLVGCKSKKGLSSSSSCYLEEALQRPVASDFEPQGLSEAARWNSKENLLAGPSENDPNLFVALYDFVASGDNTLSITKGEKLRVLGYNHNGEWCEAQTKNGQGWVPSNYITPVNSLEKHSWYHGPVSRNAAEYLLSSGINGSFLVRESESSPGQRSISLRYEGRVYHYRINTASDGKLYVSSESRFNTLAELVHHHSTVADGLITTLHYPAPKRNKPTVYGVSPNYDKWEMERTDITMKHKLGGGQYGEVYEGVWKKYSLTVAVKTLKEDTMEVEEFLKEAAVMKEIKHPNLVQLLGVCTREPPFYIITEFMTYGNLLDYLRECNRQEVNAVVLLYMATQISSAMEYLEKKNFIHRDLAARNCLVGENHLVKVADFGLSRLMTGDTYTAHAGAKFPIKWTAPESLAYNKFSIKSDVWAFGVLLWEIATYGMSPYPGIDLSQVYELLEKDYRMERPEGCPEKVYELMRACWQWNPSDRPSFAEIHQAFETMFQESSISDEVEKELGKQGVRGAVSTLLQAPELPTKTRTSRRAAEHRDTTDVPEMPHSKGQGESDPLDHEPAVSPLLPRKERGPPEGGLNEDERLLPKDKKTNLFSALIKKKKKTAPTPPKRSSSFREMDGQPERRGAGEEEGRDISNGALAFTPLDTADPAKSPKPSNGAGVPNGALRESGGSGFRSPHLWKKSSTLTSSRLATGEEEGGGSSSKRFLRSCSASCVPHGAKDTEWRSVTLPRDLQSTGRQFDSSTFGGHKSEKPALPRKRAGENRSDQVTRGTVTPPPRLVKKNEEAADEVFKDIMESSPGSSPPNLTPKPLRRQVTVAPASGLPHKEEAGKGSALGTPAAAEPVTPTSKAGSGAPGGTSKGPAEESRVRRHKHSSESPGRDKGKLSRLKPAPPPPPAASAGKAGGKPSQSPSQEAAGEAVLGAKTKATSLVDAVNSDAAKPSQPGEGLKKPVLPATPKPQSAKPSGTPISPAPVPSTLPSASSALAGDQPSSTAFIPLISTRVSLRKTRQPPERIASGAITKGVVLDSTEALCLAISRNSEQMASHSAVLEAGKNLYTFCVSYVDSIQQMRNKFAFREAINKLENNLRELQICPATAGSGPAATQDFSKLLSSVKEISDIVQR
T2 sequence (Q15303 whole entry, the tested form may be a part): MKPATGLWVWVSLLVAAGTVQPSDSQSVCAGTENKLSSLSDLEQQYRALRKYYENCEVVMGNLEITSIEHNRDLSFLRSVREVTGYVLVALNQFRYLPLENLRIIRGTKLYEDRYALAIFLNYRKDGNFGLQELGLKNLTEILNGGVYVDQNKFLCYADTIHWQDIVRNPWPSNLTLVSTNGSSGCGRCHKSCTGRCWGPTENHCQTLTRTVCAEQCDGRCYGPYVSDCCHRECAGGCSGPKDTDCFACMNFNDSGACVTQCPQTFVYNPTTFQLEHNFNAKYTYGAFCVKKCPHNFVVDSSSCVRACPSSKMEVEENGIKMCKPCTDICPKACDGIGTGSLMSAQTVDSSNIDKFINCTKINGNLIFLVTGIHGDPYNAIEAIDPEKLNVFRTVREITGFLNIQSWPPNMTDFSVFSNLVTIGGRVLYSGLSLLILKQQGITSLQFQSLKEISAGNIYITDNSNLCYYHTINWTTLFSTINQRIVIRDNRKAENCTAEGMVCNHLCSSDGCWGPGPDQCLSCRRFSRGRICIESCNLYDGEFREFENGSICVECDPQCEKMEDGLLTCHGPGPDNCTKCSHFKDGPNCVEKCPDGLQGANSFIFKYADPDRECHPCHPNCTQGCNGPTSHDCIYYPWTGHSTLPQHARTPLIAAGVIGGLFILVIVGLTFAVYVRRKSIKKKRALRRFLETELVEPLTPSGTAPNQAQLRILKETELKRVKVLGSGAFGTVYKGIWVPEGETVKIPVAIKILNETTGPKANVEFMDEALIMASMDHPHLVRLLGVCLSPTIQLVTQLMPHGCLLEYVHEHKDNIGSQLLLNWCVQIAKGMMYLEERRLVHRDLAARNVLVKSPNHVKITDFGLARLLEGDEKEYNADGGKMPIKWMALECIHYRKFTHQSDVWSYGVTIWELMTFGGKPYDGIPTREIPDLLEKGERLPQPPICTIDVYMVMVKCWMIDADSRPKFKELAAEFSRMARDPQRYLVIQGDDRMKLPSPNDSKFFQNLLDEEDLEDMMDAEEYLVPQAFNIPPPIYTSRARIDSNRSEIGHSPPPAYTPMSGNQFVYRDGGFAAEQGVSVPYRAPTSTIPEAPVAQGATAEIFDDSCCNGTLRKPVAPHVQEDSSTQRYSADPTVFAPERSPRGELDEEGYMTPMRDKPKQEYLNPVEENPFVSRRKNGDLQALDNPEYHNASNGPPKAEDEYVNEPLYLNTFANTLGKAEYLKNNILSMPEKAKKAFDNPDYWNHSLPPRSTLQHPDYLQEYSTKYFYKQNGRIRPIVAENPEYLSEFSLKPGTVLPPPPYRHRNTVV
Chain of Nociceptin receptor (P41146 whole entry): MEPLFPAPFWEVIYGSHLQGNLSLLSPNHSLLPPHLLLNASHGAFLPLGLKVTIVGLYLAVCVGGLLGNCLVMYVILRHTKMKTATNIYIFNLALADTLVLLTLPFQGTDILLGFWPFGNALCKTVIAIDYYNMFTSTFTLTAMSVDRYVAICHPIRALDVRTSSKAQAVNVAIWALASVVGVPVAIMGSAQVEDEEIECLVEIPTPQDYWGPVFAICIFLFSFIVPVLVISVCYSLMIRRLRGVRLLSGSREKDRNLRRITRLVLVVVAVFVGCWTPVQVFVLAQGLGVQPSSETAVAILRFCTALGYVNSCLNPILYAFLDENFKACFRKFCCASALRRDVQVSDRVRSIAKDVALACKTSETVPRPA
Chain of Tyrosine-protein kinase Lck (Homo sapiens) (P06239 2-509 limits assumed): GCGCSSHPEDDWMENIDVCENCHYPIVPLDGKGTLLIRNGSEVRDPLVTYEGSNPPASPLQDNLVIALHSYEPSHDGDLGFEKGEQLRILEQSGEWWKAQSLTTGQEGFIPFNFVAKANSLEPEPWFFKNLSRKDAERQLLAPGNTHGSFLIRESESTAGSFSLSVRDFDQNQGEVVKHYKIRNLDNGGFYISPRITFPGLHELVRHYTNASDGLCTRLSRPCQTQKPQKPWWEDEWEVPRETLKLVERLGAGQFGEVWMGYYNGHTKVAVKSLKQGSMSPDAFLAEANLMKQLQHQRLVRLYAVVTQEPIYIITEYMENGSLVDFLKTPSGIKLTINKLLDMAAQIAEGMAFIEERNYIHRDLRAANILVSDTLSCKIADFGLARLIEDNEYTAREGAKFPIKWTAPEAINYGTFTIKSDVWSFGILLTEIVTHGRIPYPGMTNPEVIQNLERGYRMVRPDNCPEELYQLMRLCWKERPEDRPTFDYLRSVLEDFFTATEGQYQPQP

SMILES | inhibition [1] | IC50 (HCT-116 [2]) | IC50 (HCT-116 [3]) | IC50 (NHDF) | IC50 (MCF7) | IC50 (A549) | other results
CC(=O)Oc1ccccc1/C=C/c1nc(Nc2ccccc2I)c2ccccc2n1 | 24% | > 25 µM | > 25 µM | 23.2 µM | 15.6 µM | 16.4 µM | –
CCN(CC)CCCNc1nc(/C=C/c2ccc(OC)cc2)nc2ccc(Br)cc12 | – | – | – | – | – | – | inhibition [4]: 0%
CCOc1ccccc1/C=C/c1nc2ccccc2c(=O)[nH]1 | 0% | 6.43 µM | 23.3 µM | > 25 µM | 6.26 µM | 21.8 µM | –
O=c1[nH]c(/C=C/c2ccc3c(c2)OCO3)nc2ccccc12 | 4% | > 25 µM | > 25 µM | – | – | – | –
CC(=O)Oc1cccc(/C=C/c2nc3ccccc3c(=O)[nH]2)c1 | 0% | 9.29 µM | 15.3 µM | > 25 µM | 6.37 µM | > 25 µM | –
O=c1[nH]c(/C=C/c2cccc3c2OCO3)nc2ccccc12 | 40% | > 25 µM | > 25 µM | – | – | – | –
O=c1[nH]c(/C=C/c2cccc([N+](=O)[O-])c2)nc2ccccc12 | 0% | > 25 µM | > 25 µM | – | – | – | –
Cc1nc(Nc2ncc(C(=O)Nc3c(C)cccc3Cl)s2)cc(N2CCN(CCO)CC2)n1 [DASATINIB] | 92% | – | 3.58 µM | 0.71 µM | 1.11 µM | 23.7 µM | –
COc1ccccc1/C=C/c1nc2ccccc2c(=O)[nH]1 | 0% | 1.46 µM | 2.47 µM | > 25 µM | 4.45 µM | > 25 µM | IC50 [5]: 456 nM
O=[N+]([O-])c1cccc(/C=C/c2nc(Nc3cccc(O)c3)c3ccccc3n2)c1 | 0% | 10.8 µM | 10.9 µM | 11.2 µM | 10.1 µM | 15.4 µM | IC50 [5]: 880 nM
O=c1[nH]c(/C=C/c2cc3c(cc2Br)OCO3)nc2ccccc12 | 0% | > 25 µM | > 25 µM | – | > 25 µM | > 25 µM | –
CNC(=O)c1ccccc1Sc1ccc2c(/C=C/c3ccccn3)n[nH]c2c1 | 44% | – | – | – | – | – | –
Cc1ccc2nc(/C=C/c3ccccn3)nc(N[C@H]3CC[C@@H](N)C[C@H]3C)c2c1 | – | – | – | – | – | – | Ki (Nociceptin receptor): 2 nM
Oc1cccc(Nc2nc(/C=C/c3cc4c(cc3Br)OCO4)nc3ccccc23)c1 | 0% | 5.03 µM | 4.38 µM | 4.59 µM | 4.38 µM | 7.41 µM | IC50 [5]: 287 nM
CC(=O)Oc1ccc(/C=C/c2nc3ccccc3c(=O)[nH]2)c(OC(C)=O)c1 | 19% | 23 µM | > 25 µM | > 25 µM | > 25 µM | > 25 µM | –
CCN(CC)CCCC(C)Nc1nc(/C=C/c2cc(OC)c(OC)cc2Cl)nc2cc(Cl)ccc12 (centres undefined) | – | – | – | – | – | – | IC50 [7]: > 100 µM; inhibition [8]: 80%; IC50 [9]: 6.85 µM; IC50 [10]: 7.74 µM; inhibition [11]: 50%; inhibition [12]: 0%; IC50 [13]: 5.15 µM; inhibition [14]: 70%; IC50 [15]: 4.81 µM
O=c1[nH]c(/C=C/c2c(Br)ccc3c2OCO3)nc2ccccc12 | 61% | > 25 µM | > 25 µM | 14.8 µM | 12.8 µM | 13.8 µM | –
COc1ccc(Cl)c(Nc2ncnc3cc(OCC4CCN(C)CC4)c(OC)cc23)c1 [AZM-475271] | 76% | > 25 µM | > 25 µM | > 25 µM | > 25 µM | > 25 µM | inhibition [16]: 8%
CC(=O)Oc1ccccc1/C=C/c1nc2ccccc2c(=O)[nH]1 | 0% | 17.2 µM | > 25 µM | > 25 µM | > 25 µM | > 25 µM | –
O=c1[nH]c(/C=C/c2ccc([N+](=O)[O-])cc2)nc2ccccc12 | 29% | > 25 µM | > 25 µM | – | – | – | –
Cc1ccc(NC(=O)c2ccc(CN3CCN(C)CC3)cc2)cc1Nc1nccc(-c2cccnc2)n1 [IMATINIB] | 0% | – | – | > 25 µM | > 25 µM | > 25 µM | –

Further lines, with some results ahead:

inhibition [1] | IC50 (HCT-116 [2]) | IC50 (HCT-116 [3]) | IC50 (NHDF) | IC50 (MCF7) | IC50 (A549) | SMILES | other results
0% | > 25 µM | > 25 µM | – | > 25 µM | > 25 µM | CCCCOc1ccc(/C=C/c2nc3ccccc3c(=O)[nH]2)cc1 | –
0% | 16.4 µM | 21.7 µM | 17.5 µM | 11.2 µM | 16.6 µM | COc1ccccc1/C=C/c1nc(Nc2cccc(O)c2)c2ccccc2n1 | –
2% | > 25 µM | > 25 µM | – | > 25 µM | > 25 µM | COc1ccc(/C=C/c2nc3ccccc3c(=O)[nH]2)cc1 | –
0% | 22.9 µM | 22.9 µM | > 25 µM | 14.7 µM | 20.8 µM | COc1ccc(/C=C/c2nc(Nc3cccc(O)c3)c3ccccc3n2)cc1 | –
0% | > 25 µM | > 25 µM | – | – | – | CCOc1ccc(/C=C/c2nc3ccccc3c(=O)[nH]2)cc1 | –
90% | 13.7 µM | 15.9 µM | 7.72 µM | 4.86 µM | 9.88 µM | COc1ccccc1/C=C/c1nc(Nc2ccc3c(c2)OCO3)c2ccccc2n1 | IC50 [5]: 237 nM; IC50 [6]: 191 nM
0% | > 25 µM | > 25 µM | – | – | – | COc1cccc(/C=C/c2nc3ccccc3c(=O)[nH]2)c1 | –
0% | 22.7 µM | 21.9 µM | 14.2 µM | 9.19 µM | 14.8 µM | Oc1ccc(Nc2nc(/C=C/c3cccc(Cl)c3)nc3ccccc23)cc1 | –
0% | > 25 µM | > 25 µM | – | – | – | Oc1cccc(Nc2nc(/C=C/c3cccc(Cl)c3)nc3ccccc23)c1 | –
1% | 13.3 µM | 10.8 µM | 14.4 µM | 10.8 µM | 11.6 µM | COc1ccccc1/C=C/c1nc(NCc2ccc3c(c2)OCO3)c2ccccc2n1 | –
0% | 16.1 µM | > 25 µM | > 25 µM | 18.9 µM | > 25 µM | COc1ccccc1/C=C/c1nc(Nc2ccccc2Cl)c2ccccc2n1 | –
31% | – | – | – | 27 µM | > 25 µM | COc1ccc(/C=C/c2nc(NCCCN(C)C)c3ccccc3n2)cc1 | –
63% | > 25 µM | > 25 µM | > 25 µM | 7.84 µM | > 25 µM | COc1ccc(OC)c(Nc2nc(/C=C/c3ccccc3OC(C)=O)nc3ccccc23)c1 | –
0% | 17.9 µM | > 25 µM | 13.8 µM | 8.29 µM | 13 µM | COc1ccccc1/C=C/c1nc(Nc2ccc(O)cc2)c2ccccc2n1 | –
